Results: US7732440B2, “Phenothiazin derivatives, method for the production thereof and use thereof as pharmaceuticals” (Sanofi-Aventis, priority 2007, dated 2010)

Target: T1, Human glucokinase (Homo sapiens, UniProt P35557)
T1 construct: the glucokinase polypeptide beginning with Ser-6 is obtained; GST (N, cleaved yes); made in house; host or cells: E. coli BL21
T1 sequence (P35557 6-464 isoform P35557-3 limits assumed): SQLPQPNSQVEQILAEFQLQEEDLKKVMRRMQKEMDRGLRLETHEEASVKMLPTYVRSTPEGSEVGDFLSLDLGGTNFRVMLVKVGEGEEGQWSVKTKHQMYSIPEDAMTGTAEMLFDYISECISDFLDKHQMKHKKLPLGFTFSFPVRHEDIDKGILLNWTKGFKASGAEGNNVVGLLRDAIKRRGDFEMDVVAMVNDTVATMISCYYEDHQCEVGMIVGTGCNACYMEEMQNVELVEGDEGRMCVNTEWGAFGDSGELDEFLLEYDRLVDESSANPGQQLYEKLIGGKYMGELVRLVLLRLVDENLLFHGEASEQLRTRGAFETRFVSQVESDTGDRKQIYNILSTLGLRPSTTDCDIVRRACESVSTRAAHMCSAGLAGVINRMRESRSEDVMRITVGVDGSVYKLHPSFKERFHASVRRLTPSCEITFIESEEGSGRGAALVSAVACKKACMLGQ
Assay: Enzymatic test of glucokinase activators (coupled optical test)
Assay type: biochemical
Conditions: 5 mM glucose; for Concentration raising glucokinase activity by 50% (EC150): concentration of test compound which increases the enzymatic activity by 50% (0 μM = 100%), 25° C., 1 mM ATP, pH 7; for Fold induction: maximum fold stimulation: highest change in extinction in the concentration range 0.1-100 μM relative to change without test substance
Text: Enzymatic Test of Glucokinase Activators
Human glucokinase is expressed as a fusion protein with glutathione S-transferase (GST) in E. coli BI21 and purified by affinity chromatography. […] is cleaved off by digestion with factor Xa, and the glucokinase polypeptide beginning with Ser-6 is obtained. The latter is purified chromatographically. At room temperature, a typical glucokinase preparation has a specific activity of 30 U/mg protein.
The activity of glucokinase and the effect of compounds on this activity are determined by a coupled optical test at 25° C. The test volume is 100 μl. The test composition is: 25 mM HEPES/NaOH (Merck; #110110) pH 7, 25 mM KCl (Merck; #04933), 2 mM MgCl2 (Merck; #05833), 1 mM dithiothreitol (Merck; #112013), 1 mM NAD (Sigma; #N1511), 5 mM glucose (Merck; #108337), 1 mM ATP (Sigma; #A2383), 0.1% (w/v) bovine serum albumin (Merck; #112018), 0.002 U glucokinase preparation and 3.2 U glucose 6-phosphate dehydrogenase (Sigma; #G8529). The mixture furthermore contains a test compound. The test compounds are in each case dissolved in 10 mM DMSO and are tested at final concentrations of 0 μM, 0.1 μM, 0.3 μM, 1 μM, 3 μM, 10 μM, 30 μM and 100 μM. The final concentration of DMSO in the test is 1% (v/v). The reaction is started by addition of ATP. The absorption of the mixture at 340 nm is determined immediately after the addition of ATP and then 25 min later using a multiwell plate photometer (from Labsystems, Multiskan Ascent). The change of the absorption during this period is calculated.
The crude data of the changes in extinction are transferred into a Microsoft Excel file. The value for 0 μM test compound is assigned to be 100%. Dose/activity curves are calculated using the program XL.Fit according to the instructions of the manufacturer (IDBS). The concentration of a test compound which increases the enzymatic activity by 50% is defined as EC150. The maximum fold stimulation corresponds to the ratio of the highest change in extinction in the concentration range of a test compound to the change of the absorption without test substance.

| Structure (SMILES) | Concentration raising glucokinase activity by 50% (EC150) [nM] | Fold induction |
| --- | --- | --- |
| CN1c2ccccc2S(=O)(=O)c2ccc(C(CC3CCOCC3)C(=O)Nc3ccn(C)n3)cc21 (centres unmarked) [Example 5, 2-(10-Methyl-5,5-dioxo-5,10-dihydrophenothiazin-2-yl)-N-(1-methyl-1H-pyrazol-3-yl)-3-(tetrahydropyran-4-yl)propionamide] | 2100 | 4.4 |
| Cc1ccc(NC(=O)C(CC2CCOCC2)c2ccc3c(c2)N(C)c2ccccc2S3(=O)=O)nn1 (centres unmarked) [Example 6, 2-(10-Methyl-5,5-dioxo-5,10-dihydrophenothiazin-2-yl)-N-(6-methylpyridazin-3-yl)-3-(tetrahydropyran-4-yl)propionamide] | 15500 | 2.1 |
| COc1ccc2nc(NC(=O)C(C[C@H]3CCC(=O)C3)c3ccc4c(c3)N(C)c3ccccc3S4(=O)=O)sc2n1 (stereo partly drawn) [Example 41, N-(5-Methoxythiazolo[5,4-b]pyridin-2-yl)-2-(10-methyl-5,5-dioxo-5,10-dihydrophenothiazin-2-yl)-3-((R)-3-oxocyclopentyl)propionamide] | 700 | 3.9 |
| Cn1ccc(NC(=O)C(CC2CC=C(F)CC2)c2ccc3c(c2)Nc2ccccc2S3(=O)=O)n1 (centres unmarked) [Example 54, 2-(5,5-Dioxo-5,10-dihydrophenothiazin-2-yl)-3-(4-fluorocyclohex-3-enyl)-N-(1-methyl-1H-pyrazol-3-yl)propionamide] | 1000 | 4.5 |
| CCOC(=O)c1ccc2c(c1)S(=O)(=O)c1ccc(C(CC3CCC(=O)C3)C(=O)Nc3ccn(C)n3)cc1N2C (centres unmarked) [Example 42, Ethyl 10-methyl-8-[1-(1-methyl-1H-pyrazol-3-ylcarbamoyl)-2-(3-oxocyclopentyl)-ethyl]-5,5-dioxo-5,10-dihydrophenothiazine-3-carboxylate] | 1200 | 3.6 |
| CN1c2ccccc2S(=O)(=O)c2ccc(C(CC3CCOCC3)C(=O)Nc3nccs3)cc21 (centres unmarked) [Example 1, 2-(10-Methyl-5,5-dioxo-5,10-dihydrophenothiazin-2-yl)-3-(tetrahydropyran-4-yl)-N-thiazol-2-ylpropionamide] | 4200 | 2.0 |
| Cn1ccc(NC(=O)C(C[C@H]2CCC(=O)C2)c2ccc3c(c2)Nc2ccccc2S3(=O)=O)n1 (stereo partly drawn) [Example 46, 2-(5,5-Dioxo-5,10-dihydrophenothiazin-2-yl)-N-(1-methyl-1H-pyrazol-3-yl)-3-((R)-3-oxocyclopentyl)propionamide] | 600 | 5.0 |
| CN1c2ccccc2S(=O)(=O)c2ccc(C(CC3CCCC3)C(=O)Nc3nccs3)cc21 (centres unmarked) [Example 9, 3-Cyclopentyl-2-(10-methyl-5,5-dioxo-5,10-dihydrophenothiazin-2-yl)-N-thiazol-2-yl-propionamide] | 2200 | 2.8 |
| COc1ccc2nc(NC(=O)C(CC3CCOCC3)c3ccc4c(c3)N(C)c3ccccc3S4(=O)=O)sc2n1 (centres unmarked) [Example 15, N-(5-Methoxy-thiazolo[5,4-b]pyridin-2-yl)-2-(10-methyl-5,5-dioxo-5,10-dihydrophenothiazin-2-yl)-3-(tetrahydropyran-4-yl)propionamide] | 900 | 5.0 |
| CN1c2ccccc2S(=O)(=O)c2ccc(C(CC3CCC(=O)CC3)C(=O)Nc3ccn(C)n3)cc21 (centres unmarked) [Example 36, 2-(10-Methyl-5,5-dioxo-5,10-dihydrophenothiazin-2-yl)-N-(1-methyl-1H-pyrazol-3-yl)-3-(4-oxocyclohexyl)propionamide] | 500 | 4.0 |
